Test results from US20250235484A1, “METHODS FOR MAKING EXTRACELLULAR VESICLES, AND COMPOSITIONS AND METHODS OF USE THEREOF” (EVIA LIFE SCIENCES INC., priority 2021, published 2025).
Entries after “also recorded” stand apart in the source; their conditions may differ.

Key:
[1] = system: Human primary keratinocytes; test: Extracellular vesicle secretion by cultured keratinocytes, Nanosight analysis of culture supernatant; assay type: cell-based; details: compared with normal KC-EVs / keratinocytes without inhibitors
Protocol: (§1) Human primary keratinocytes were cultured in EpiLife™ medium with or without Y or Y+A supplementation according to the schedule below, and analyzed for extracellular vesicle secretion. 10 μM Y-27632 (Wako) and 0.5 μM A-83-01 (Wako) was used. Collection media was serum-free EpiLife™ medium without inhibitors. Thus, depending on the experiment, or stage of the experiment, human epidermal keratinocytes were cultured in serum free media such as EpiLife™ Medium, without or without small molecule inhibitor(s), namely, 10 μM Y-27632 (Wako) alone, or 10 μM Y-27632 plus 0.5 μM A-83-01 (Wako).

[2] = system: Human primary keratinocytes; test: Long-term culture of keratinocytes: proliferation, morphology, cell condition; assay type: cell-based
Protocol: as §1, with “(Wako). [table] Long-term culture of keratinocytes was carried out by adding low molecular weight compounds Y and Y+A.” for “(Wako).”

CC(N)[C@H]1CC[C@H](C(=O)Nc2ccncc2)CC1 (mixture of isomers) [Y, (+/−)-trans-N-(4-Pyridyl)-4-(1-aminoethyl)-cyclohexanecarboxamide]
amount of EVs secreted [1]: increased; also recorded: larger number
cell proliferation ([2]; compared with culturing normal cells without Y, 10 μM Y-27632): increased; also recorded: enhanced
cell growth, morphology and cell condition ([2]; long-term culture, micrographs): good cell growth, and good morphology; also recorded: cell morphology was the best
